Reference: ChEMBL document CHEMBL6092194, “Development of membrane-targeting chalcone derivatives as antibacterial agents against multidrug-resistant bacteria” (Eur J Med Chem, 2024)

Legend:
Staphylococcus aureus [1] = assay: Antibacterial activity against penicillin-resistant Staphylococcus aureus ATCC43300 by broth microdilution assay; assay type: functional
Bacillus subtilis = assay: Antibacterial activity against penicillin-susceptible Bacillus subtilis ATCC9372 by broth microdilution assay; assay type: functional
Pseudomonas aeruginosa = assay: Antibacterial activity against penicillin-susceptible Pseudomonas aeruginosa ATCC27853 by broth microdilution method; assay type: functional
Staphylococcus aureus [2] = assay: Antibacterial activity against penicillin-resistant Staphylococcus aureus ATCC31007 by broth microdilution assay; assay type: functional
[3] = Hemolytic activity in red blood cells (unknown origin); assay type: toxicity, cell-based, Erythrocyte
Escherichia coli = assay: Antibacterial activity against penicillin-susceptible Escherichia coli ATCC25922 by broth microdilution method; assay type: functional
[4] = Selectivity index, ratio of HC50 for hemolytic activity in red blood cells (unknown origin) to MIC for antibacterial activity against penicillin-resistant Staphylococcus aureus ATCC43300; assay type: toxicity, cell-based, RBC; conditions: read-out: Selectivity Index
Staphylococcus aureus [5] = assay: Antibacterial activity against erythromycin susceptible Staphylococcus aureus ATCC25923 by broth microdilution assay; assay type: functional
Enterococcus faecalis = assay: Antibacterial activity against vancomycin susceptible Enterococcus faecalis ATCC29212 by broth microdilution assay; assay type: functional
[6] = tested on: Staphylococcus epidermidis; assay: Antibacterial activity against erythromycin-susceptible Staphylococcus epidermidis ATCC12228 by broth microdilution assay; assay type: functional
Klebsiella pneumoniae = assay: Antibacterial activity against Klebsiella pneumoniae ATCC10031 by broth microdilution assay; assay type: functional
Acinetobacter baumannii = assay: Antibacterial activity against Acinetobacter baumannii ATCC19606 by broth microdilution assay; assay type: functional

SMILES | MIC (Staphylococcus aureus [1]) [µg/mL] | MIC (Bacillus subtilis) [µg/mL] | MIC (Pseudomonas aeruginosa) [µg/mL] | MIC (Staphylococcus aureus [2]) [µg/mL] | HC50 [3] [µg/mL] | MIC (Escherichia coli) [µg/mL] | selectivity ratio [4] | MIC (Staphylococcus aureus [5]) [µg/mL] | MIC (Enterococcus faecalis) [µg/mL] | MIC [6] [µg/mL] | MIC (Klebsiella pneumoniae) [µg/mL] | MIC (Acinetobacter baumannii) [µg/mL]
CCCCCC(=O)Nc1cc[n+](CCCOc2ccc(C(=O)/C=C/c3ccccc3)cc2)cc1.[Br-] | 4 | 4 | > 128 | 4 | > 1280 | > 128 | > 320 | 2 | 8 | > 128 | > 128 | > 128
O=C(CC12CC3CC(CC(C3)C1)C2)Nc1cc[n+](CCCOc2ccc(C(=O)/C=C/c3ccccc3)cc2)cc1.[Br-] | 128 | 64 | > 128 | 64 | 708 | > 128 | 5.5 | 32 | 64 | 64 | > 128 | > 128
CCCCCCNC(=O)C[N+](C)(C)CCCOc1ccc(/C=C/C(=O)c2ccc(OCCC[N+](C)(C)CC(=O)NCCCCCC)cc2)cc1.[Br-].[Br-] | 1 | 2 | 32 | 1 | 234 | 2 | 329 | 1 | 2 | 1 | 4 | 32
CCCC[N+](C)(C)CCCCCCCOc1ccc(C(=O)/C=C/c2ccccc2)cc1.[Br-] | 8 | 32 | > 128 | 16 | 130 | > 128 | 16.3 | 8 | 32 | 16 | 32 | 64
CCCC(=O)Nc1cc[n+](CCCOc2ccc(C(=O)/C=C/c3ccccc3)cc2)cc1.[Br-] | > 128 | > 128 | > 128 | > 128 | > 1280 | > 128 | > 10 | > 128 | > 128 | > 128 | > 128 | > 128
CCCCCCCCCC(=O)Nc1cc[n+](CCCOc2ccc(C(=O)/C=C/c3ccccc3)cc2)cc1.[Br-] | 4 | 2 | > 128 | 4 | 871 | 32 | 218 | 4 | 8 | 16 | > 128 | 64
CCCCCCCCCCCCNC(=O)C[N+](C)(C)CCCOc1ccc(/C=C/C(=O)c2ccc(OCCC[N+](C)(C)CC(=O)NCCCCCCCCCCCC)cc2)cc1.[Br-].[Br-] | > 128 | 128 | > 128 | > 128 | 703 | > 128 | < 5.5 | > 128 | > 128 | > 128 | > 128 | > 128
CCCCCC[N+](C)(C)CCCOc1ccc(C(=O)/C=C/c2ccccc2)cc1.[Br-] | 16 | 16 | > 128 | 16 | 49.6 | > 128 | 3.1 | 4 | 16 | 8 | 64 | 64
CCCCCCCC[N+](C)(C)CCCOc1ccc(C(=O)/C=C/c2ccccc2)cc1.[Br-] | 1 | 2 | 64 | 4 | 17.2 | 64 | 17.2 | 1 | 8 | 1 | 4 | 8
O=C(/C=C/c1ccccc1)c1ccc(OCCC[n+]2ccc(NC(=O)c3ccc4ccccc4c3)cc2)cc1.[Br-] | > 128 | > 128 | > 128 | > 128 | > 1280 | > 128 | > 10 | > 128 | > 128 | > 128 | > 128 | > 128
CCCCCCCCCC[N+](C)(C)CCCCCCCOc1ccc(C(=O)/C=C/c2ccccc2)cc1.[Br-] | 4 | 4 | > 128 | 8 | 50.5 | > 128 | 12.6 | 4 | 8 | 4 | 32 | 128
CCCCCCCC[N+](C)(C)CCCCCOc1ccc(C(=O)/C=C/c2ccccc2)cc1.[Br-] | 2 | 4 | > 128 | 4 | 50.5 | 128 | 25.2 | 2 | 2 | 4 | 8 | 8
CCCCCCCCCCCCCC[N+](C)(C)CCCOc1ccc(C(=O)/C=C/c2ccccc2)cc1.[Br-] | 32 | 32 | > 128 | 64 | 39 | > 128 | 9.8 | 8 | 32 | 16 | 128 | 128
CCCCCCCCCCCC[N+](C)(C)CCCCCOc1ccc(C(=O)/C=C/c2ccccc2)cc1.[Br-] | 8 | 8 | > 128 | 16 | 167 | > 128 | 20.9 | 8 | 16 | 8 | > 128 | 128
CCCCCCCCCCCC[N+](C)(C)CCCCCCCOc1ccc(C(=O)/C=C/c2ccccc2)cc1.[Br-] | 16 | 16 | > 128 | 64 | 47.4 | > 128 | 3 | 16 | 32 | 16 | > 128 | > 128
CCCCCCCCCC[N+](C)(C)CCCOc1ccc(/C=C/C(=O)c2ccc(OCCC[N+](C)(C)CCCCCCCCCC)cc2)cc1.[Br-].[Br-] | 2 | 2 | 32 | 2 | 44 | 8 | 22 | 8 | 2 | 1 | 64 | 128
CCCCOc1cc[n+](CCCOc2ccc(/C=C/C(=O)c3ccc(OCCC[n+]4ccc(OCCCC)cc4)cc3)cc2)cc1.[Br-].[Br-] | 4 | 1 | 64 | 2 | > 1280 | 16 | > 320 | 1 | 0.5 | 1 | 8 | 128
CCCCCCCCNC(=O)C[N+](C)(C)CCCOc1ccc(/C=C/C(=O)c2ccc(OCCC[N+](C)(C)CC(=O)NCCCCCCCC)cc2)cc1.[Br-].[Br-] | 4 | 4 | 128 | 8 | 69.5 | 8 | 17.4 | 4 | 4 | 8 | 32 | 16
CCCCCCCC[N+](C)(C)CCCOc1ccc(/C=C/C(=O)c2ccc(OCCC[N+](C)(C)CCCCCCCC)cc2)cc1.[Br-].[Br-] | 1 | 1 | 16 | 1 | 129 | 4 | 129 | 1 | 2 | 1 | 16 | 32
CCCCCCCCCC[N+](C)(C)CCCCCOc1ccc(C(=O)/C=C/c2ccccc2)cc1.[Br-] | 4 | 4 | > 128 | 4 | 42 | 64 | 10.5 | 4 | 4 | 8 | 16 | 16
CCCCCCCCCCCC(=O)Nc1cc[n+](CCCOc2ccc(C(=O)/C=C/c3ccccc3)cc2)cc1.[Br-] | 16 | > 128 | > 128 | 8 | 753 | > 128 | 47.1 | 8 | 8 | 128 | > 128 | > 128
O=C(Cc1ccc(-c2ccccc2)cc1)Nc1cc[n+](CCCOc2ccc(C(=O)/C=C/c3ccccc3)cc2)cc1.[Br-] | > 128 | > 128 | > 128 | 128 | > 1280 | > 128 | > 10 | > 128 | > 128 | > 128 | > 128 | > 128
CCCCCCCC[N+](C)(C)CCCCCCCOc1ccc(C(=O)/C=C/c2ccccc2)cc1.[Br-] | 2 | 2 | > 128 | 4 | 105 | 128 | 52.6 | 2 | 4 | 2 | 8 | 32
